Data set [1] relates to hematopoietic tumor models, including multiple myeloma. The conditions noted are these: some in vivo nonclinical hematopoietic tumor models; cited from earlier work.
Data set [2] concerns COX-1. The conditions noted are these: in vitro; cited from earlier work.
For data set [3], the system named is cyclooxygenase-2 (COX-2). The conditions noted are these: in vitro; cited from earlier work.
Data set [4] relates to cells derived from patients with multiple myeloma and del (5q) myelodysplastic syndromes. Particulars: cells from patients with multiple myeloma and del (5q) MDS; cited from earlier work.
Data set [5] deals with tumor necrosis factor alpha (TNF-α). The conditions noted are these: peripheral blood mononuclear cells; cited from earlier work.
The nature of data set [6]: Estimated solubility of lenalidomide in solvents at ambient temperature (aliquot addition, visual inspection). It is filed as physicochemical. Particulars: organic solvent or mixture, thermodynamic from solid. Here is the method:
Solubility was estimated by treating a weighed sample of lenalidomide with measured aliquots of the test solvent at ambient temperature, with shaking and/or sonication between aliquots. Dissolution was determined by visual inspection. Solubility numbers were calculated by dividing the total amount of solvent used to dissolve the sample by the weight of the sample. The actual solubilities may be greater than the numbers calculated because of the use of solvent aliquots that were too large or because of slow dissolution rates. […] The solubility number is expressed as “greater than” if dissolution occurred on addition of the first solvent aliquot.

Converted amounts (≈) assume the structure as drawn.

Results on one molecule are retold here after patent US9808450B2, “Solid forms comprising 3-(4-amino-1-OXO-1,3-dihydro-isoindol-2-yl)-piperidine-2,6-dione and a coformer, compositions and methods of use thereof” (CELGENE CORPORATION, priority 2013, dated 2017).

For orientation: solubility means the concentration that dissolves in the medium under given conditions.

Take `Nc1cccc2c1CN(C1CCC(=O)NC1=O)C2=O` (stereo not drawn) [Lenalidomide, 3-(4-amino-1-oxo-1,3-dihydro-isoindol-2-yl)-piperidine-2,6-dione]: the Tumor growth entry in data set [1] is reported as “delay in tumor growth”. Besides, the “Expression of COX-1” value in data set [2] is given as “not”. Also, the “Expression of COX-2” value in data set [3] is “inhibited the expression”. In addition, the “Growth of cells in vitro” value in data set [4] was “inhibits the growth”. Besides, the “Secretion of TNF-α” value in data set [5] was “inhibits the secretion”. The solubility is 2200 µg/mL (≈ 8.49 mM) in data set [6] (acetone), 3400 µg/mL (≈ 13.1 mM) in data set [6] (acetonitrile), 2600 µg/mL (≈ 10 mM) in data set [6] (methanol) and 3000 µg/mL (≈ 11.6 mM) in data set [6] (tetrahydrofuran).
